According to PubChem BioAssay (NCI):
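How tested: cells in 96-well plates exposed to compound for 48 hours at five concentrations. GI50 marks 50% less growth. TGI is the concentration that stops growth completely.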

Columns and labels:
Experiment in all cases: DTP human tumour cell line panel, 48 h
OVCAR-3 ovarian = tested on: OVCAR-3 ovarian
KM12 colon = tested on: KM12 colon
OVCAR-8 ovarian = tested on: OVCAR-8 ovarian
BT-549 breast = tested on: BT-549 breast
COLO 205 colon = tested on: COLO 205 colon
HOP-92 NSCLC = tested on: HOP-92 NSCLC
ACHN renal = tested on: ACHN renal
HCT-116 colon = tested on: HCT-116 colon

| SMILES | GI50 (OVCAR-3 ovarian) [µM] | TGI (OVCAR-3 ovarian) [µM] | GI50 (KM12 colon) [µM] | TGI (KM12 colon) [µM] | GI50 (OVCAR-8 ovarian) [µM] | TGI (OVCAR-8 ovarian) [µM] | GI50 (BT-549 breast) [µM] | TGI (BT-549 breast) [µM] | GI50 (COLO 205 colon) [µM] | TGI (COLO 205 colon) [µM] | GI50 (HOP-92 NSCLC) [µM] | TGI (HOP-92 NSCLC) [µM] | GI50 (ACHN renal) [µM] | TGI (ACHN renal) [µM] | GI50 (HCT-116 colon) [µM] | TGI (HCT-116 colon) [µM] |
| --- | --- | --- | --- | --- | --- | --- | --- | --- | --- | --- | --- | --- | --- | --- | --- | --- |
| OCCCN=NNc1ccc(-c2nc3ccccc3[nH]2)cc1 | 2.31 | 5.13 | 5.12 | 24.9 | 3.12 | > 100 | 34.4 | 96.8 | 12.3 | 52.9 | 14.8 | 66.5 | 24.4 | 64 | – | – |
| COc1cc(C(=O)/C=C/c2cc(C(=O)c3cc(OC)c(OC)c(OC)c3)ccc2OC)ccc1N | 0.448 | 4.17 | 0.552 | 5.37 | 0.846 | 6.12 | – | – | – | – | 2.94 | > 100 | 1.08 | 4.49 | 0.661 | 2.03 |
| COc1cc(/C=C/c2cc(/C=C/c3ccc(O)c(OC)c3)n(-c3c(C)cccc3C)c(=O)n2)ccc1O | 1.37 | 6.6 | 0.47 | 3.63 | 1.51 | 8.16 | – | – | 2.07 | 4.19 | 2.07 | 5.51 | 0.399 | 10.6 | 0.695 | 3.38 |
| CS(=O)CCCCCN=C=S (centres undefined) | 3.07 | 10.1 | 3.33 | 13 | 4.93 | 22.1 | 3.07 | 11.5 | 3.21 | 12 | 3.55 | 9.52 | 4.07 | 16.5 | 2.86 | 10.2 |
| NS(=O)(=O)c1cc2c(cc1Cl)NC(Cc1ccccc1)NS2(=O)=O (centres undefined) | – | > 100 | – | > 100 | – | > 100 | – | > 100 | – | > 100 | – | > 100 | – | > 100 | – | > 100 |
| COc1cccc(C2C(C#N)=C(N)Oc3cc(N)ccc32)c1 (centres undefined) | 0.337 | 1.03 | 0.442 | 45.9 | 0.649 | > 60.9 | 0.351 | 54.3 | 0.385 | 2.09 | 0.31 | 58.3 | 0.762 | > 100 | 0.383 | > 72.2 |
| CN(C)c1ccc(C(=C2C=CC(=[N+](C)C)C=C2)c2ccc(N(C)C)cc2)cc1 (tested in a mixture with another compound) | 0.133 | 0.949 | 0.0379 | 0.172 | – | – | 0.188 | 0.84 | 0.0232 | 0.0519 | – | 0.714 | 0.233 | 1.48 | 0.039 | 1.02 |
| COC(=O)c1ccc2c(c1)nc(-c1cc3ccccc3[nH]c1=O)n2-c1cc(C(C)(C)C)[nH]n1 | 4.5 | > 100 | – | – | 2 | > 100 | 4.88 | 66.2 | – | – | – | – | > 100 | > 100 | 1.74 | > 100 |
| CCOc1ccc([C@@H]2[C@@H](Oc3ccccc3)C(=O)N2c2cc(OC)c(OC)c(OC)c2)cc1 | 0.0355 | > 100 | 0.0525 | > 100 | 0.0463 | > 100 | 0.0681 | > 100 | 0.124 | 0.506 | 0.642 | > 100 | 0.07 | > 100 | 0.0437 | 3.88 |
| CCCCCCCC/C=C/CCCCCCCCC1=NCCN1CCO | 11.5 | 25.7 | 2.71 | 7.64 | 3.88 | 21.7 | 11.3 | 40.2 | 3.76 | 13.9 | 0.976 | 3.4 | 2.6 | 8.39 | – | – |
| COc1ccc(-c2ccc(/C=N/n3c(COc4ccccc4Cl)nn(CN4CCN(C)CC4)c3=S)o2)c([N+](=O)[O-])c1 | – | – | 11.9 | 31.7 | 17.3 | 42.2 | 17.2 | 43 | 24.4 | 60.3 | 21 | 70.7 | 23.1 | 50.1 | 16.1 | 29.8 |
| CCCCCCCCCCCCCCCCCC1=NCCN1CS(=O)(=O)O | 15 | 33.7 | 2.78 | 8.49 | 20.4 | 48.9 | 19.5 | 37.7 | 5.07 | 18.5 | 7.82 | 26.2 | 13 | 28.8 | 10.4 | 30.3 |
| CN1CCCNc2c(c(=O)c2=O)NCCCN(C)CCCNc2c(c(=O)c2=O)NCCCN(C)CCCNc2c(c(=O)c2=O)NCCCN(C)CCCNc2c(c(=O)c2=O)NCCCN(C)CCCNc2c(c(=O)c2=O)NCCCN(C)CCCNc2c(c(=O)c2=O)NCCCN(C)CCCNc2c(c(=O)c2=O)NCCC1 | 4.39 | 15.1 | 3.63 | 18 | 2.48 | 46.8 | 5.69 | 19.8 | 2 | 6.13 | – | – | 1.66 | 6.87 | 5.81 | 17.4 |
| CCC(C)n1cc(C)c2c(C(=O)NCc3c(C)cc(C)[nH]c3=O)cc(Br)cc21 (centres undefined) | 44.5 | > 100 | 38.1 | > 100 | 63.7 | > 100 | 41.8 | > 100 | 42.1 | > 100 | – | – | 46.1 | > 100 | 48 | > 100 |
| ClC1=C(Cl)C(Cl)=C(Cl)C1=C/C=C/c1ccccc1 | 0.239 | 0.532 | 0.272 | 0.684 | 0.266 | 1.92 | – | – | 0.226 | 0.686 | 0.165 | 0.491 | 0.318 | 0.855 | 0.213 | 0.457 |
| CC(=O)N1CC(Nc2ccc(OC(F)(F)F)cc2)=CC1=O | 1.19 | 4.03 | 0.562 | 25.1 | 3.63 | > 100 | 4.16 | > 100 | 1.21 | 4.69 | – | – | 8.27 | > 100 | 0.472 | 23.3 |
